Data on 32 compounds can be found in US9914736B2, “TrKA kinase inhibitors, compositions and methods thereof” (Merck Sharp & Dohme Corp., priority 2014, dated 2018).

pIC50: −log10 of the molar value.

Usually pIC50 stands for the negative decadic logarithm of the IC50, by convention in mol/L. Read a high pIC50 as a small IC50.

The target of this test is human TrkA receptor (Homo sapiens (Human), UniProt P04629). Put plainly: DiscoverX PathHunter TrkA functional assay. It counts as cell-based. To be noted: U2OS cells expressing human TrkA-ProLink, Shc1-EA and p75NTR; compound 1 h, then NGF at ~80% of maximal response for 3 h; luminescence.
Chain of human TrkA receptor (P04629 33-796): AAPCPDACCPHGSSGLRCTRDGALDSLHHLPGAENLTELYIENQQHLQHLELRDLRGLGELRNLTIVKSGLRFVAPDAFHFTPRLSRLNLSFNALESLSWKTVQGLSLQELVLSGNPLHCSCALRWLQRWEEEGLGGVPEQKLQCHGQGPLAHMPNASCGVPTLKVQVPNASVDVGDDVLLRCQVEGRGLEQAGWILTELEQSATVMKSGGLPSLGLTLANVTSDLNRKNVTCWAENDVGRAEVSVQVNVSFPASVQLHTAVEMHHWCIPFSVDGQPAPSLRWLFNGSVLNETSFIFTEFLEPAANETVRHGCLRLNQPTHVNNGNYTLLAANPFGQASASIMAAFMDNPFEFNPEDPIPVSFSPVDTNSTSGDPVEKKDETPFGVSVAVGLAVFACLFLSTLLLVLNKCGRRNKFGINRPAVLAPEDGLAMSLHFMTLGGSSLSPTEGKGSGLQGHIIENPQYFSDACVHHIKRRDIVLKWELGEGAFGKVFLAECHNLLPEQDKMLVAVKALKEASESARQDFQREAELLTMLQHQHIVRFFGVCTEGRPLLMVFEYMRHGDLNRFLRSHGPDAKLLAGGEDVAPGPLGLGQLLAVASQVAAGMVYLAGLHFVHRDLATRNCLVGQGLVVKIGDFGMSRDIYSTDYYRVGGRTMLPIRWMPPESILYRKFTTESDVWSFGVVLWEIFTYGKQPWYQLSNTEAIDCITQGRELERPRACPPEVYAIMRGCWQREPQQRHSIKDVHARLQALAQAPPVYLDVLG

Experimental: TrkA functional activity was measured using a DiscoverX PathHunter assay. In this assay, U2OS cells express the human TrkA receptor as a fusion with the weakly complementing fragment of B-galactosidase, which DiscoverX calls “Prolink (PK)”; additionally, Shc1 is fused with a larger fragment, which is called “Enzyme Acceptor (EA)”. Activation of the TrkA receptor, upon NGF addition, results in the kinase domain being phosphorylated, resulting in subsequent recruitment of Shc1-EA protein. That recruitment results in an active B-galactosidase enzyme that is detected by addition of a chemiluminescent substrate. The human p75^NTR protein was also expressed as a co-receptor for NGF.
All reagents were purchased from DiscoverX, except for the receptor agonists (NGF, BDNF, NT3) which were purchased from Peprotech. Cells were expanded and frozen into cryovials, and stored in the vapor phase of liquid nitrogen, and thawed immediately before use. Thawed cells were added to a 384-well plate at 7500 cells/well, and allowed to incubate overnight. Compound at various concentrations was added the following morning and allowed to incubate on cells for 1 h. Then, NGF was added at a concentration sufficient to elicit ˜80% of a maximal response and allowed to incubate for 3 h at ambient temperature. DiscoverX PathHunter detection reagent was then added and the plate was further incubated for 1 h in the dark. The plate was then read via luminescence on the Perkin Elmer Envision.

As for `CC(=O)n1cc(NC(=O)c2ccc(C(F)(F)F)c(-c3ccn(C)n3)c2)c(-c2ccccc2)n1` [Compound 33, N-(1-acetyl-3-phenyl-1H-pyrazol-4-yl)-3-(1-methyl-1H-pyrazol-3-yl)-4-(trifluoromethyl)benzamide], the negative logarithm of the IC50 (pIC50) is 7.74.

On to `O=C(Nc1cc(-c2ccncc2)nn1-c1ccc(F)cc1)c1ccc(C(F)(F)F)c(-c2cccnc2)c1` [Compound 35, N-[1-(4-fluorophenyl)-3-pyridin-4-yl-1H-pyrazol-5-yl]-3-pyridin-3-yl-4-(trifluoromethyl)benzamide], for which the pIC50 is 5.77.

For the compound `Cn1ccc(-c2cc(C(=O)Nc3cc(-c4ccncc4)nn3-c3ccccc3)c(Cl)cc2C(F)(F)F)n1` [Compound 36, 2-chloro-5-(1-methyl-1H-pyrazol-3-yl)-N-(1-phenyl-3-pyridin-4-yl-1H-pyrazol-5-yl)-4-(trifluoromethyl)benzamide], the pIC50 was 9.43.

Turning to `Cn1ccc(-c2cc(C(=O)Nc3cnoc3-c3ccccc3)ccc2C(F)(F)F)n1` [Compound 37, 3-(1-methyl-1H-pyrazol-3-yl)-N-(5-phenylisoxazol-4-yl)-4-(trifluoromethyl)benzamide], the pIC50 is 6.74.

`O=C(Nc1cc(-c2ccncc2)nn1-c1ccccc1)c1cc(-c2cc[nH]n2)c(C(F)(F)F)cc1Cl` [Compound 39, 2-chloro-N-(1-phenyl-3-pyridin-4-yl-1H-pyrazol-5-yl)-5-(1H-pyrazol-3-yl)-4-(trifluoromethyl)benzamide]: the negative logarithm of the IC50 (pIC50) is 8.54.

Regarding `Cn1ccc(-c2cc(C(=O)Nc3cc(-c4ccncc4)nn3-c3cc(C(F)(F)F)n[nH]3)ccc2Cl)n1` [Compound 40, 4-chloro-3-(1-methyl-1H-pyrazol-3-yl)-N-[3-pyridin-4-yl-5′-(trifluoromethyl)-2′H-1,3′-bipyrazol-5-yl]benzamide], the negative logarithm of the IC50 (pIC50) is 8.49.

Compound `O=C(Nc1cc(-c2ccncc2)nn1-c1cc(C(F)(F)F)n[nH]1)c1ccc(Cl)c(-c2cc[nH]n2)c1` [Compound 41, 4-chloro-3-(1H-pyrazol-3-yl)-N-[3-pyridin-4-yl-5′-(trifluoromethyl)-2′H-1,3′-bipyrazol-5-yl]benzamide] showed a pIC50 of 6.62.

In turn, `O=C(Nc1cc(-c2ccncc2)nn1-c1ccc(F)cc1)c1ccc(Cl)c(-c2cc[nH]n2)c1` [Compound 42, 4-chloro-N-[1-(4-fluorophenyl)-3-pyridin-4-yl-1H-pyrazol-5-yl]-3-(1H-pyrazol-3-yl)benzamide] showed a negative logarithm of the IC50 (pIC50) of 6.96.

In turn, `Cn1ccc(-c2cc(C(=O)Nc3cn(C)nc3-c3ccccc3)ccc2C(F)(F)F)n1` [Compound 43, N-(1-methyl-3-phenyl-1H-pyrazol-4-yl)-3-(1-methyl-1H-pyrazol-3-yl)-4-(trifluoromethyl)benzamide] gave a pIC50 of 7.96.

Turning to `Cc1c(-c2cnn(C)c2)nn(-c2ccccc2)c1NC(=O)c1ccc(C(F)(F)F)c(-c2ccn(C)n2)c1` [Compound 44, N-(1′,4-dimethyl-1-phenyl-1H,1′H-3,4′-bipyrazol-5-yl)-3-(1-methyl-1H-pyrazol-3-yl)-4-(trifluoromethyl)benzamide], the pIC50 was 7.96.

Consider `Cn1ccc(-c2cc(C(=O)Nc3[nH]ncc3-c3ccccc3)c(Cl)cc2C(F)(F)F)n1` [Compound 45, 2-chloro-5-(1-methyl-1H-pyrazol-3-yl)-N-(4-phenyl-1H-pyrazol-5-yl)-4-(trifluoromethyl)benzamide], for which the pIC50 is 8.15.

For `Cc1cnn(-c2ccccc2)c1NC(=O)c1cc(-c2ccn(C)n2)c(C(F)(F)F)cc1Cl` [Compound 46, 2-chloro-N-(4-methyl-1-phenyl-1H-pyrazol-5-yl)-5-(1-methyl-1H-pyrazol-3-yl)-4-(trifluoromethyl)benzamide], the negative logarithm of the IC50 (pIC50) is 7.89.

For `O=C(Nc1cc(-c2ccncc2)nn1-c1ccc(F)cc1)c1ccc(C(F)(F)F)c(-c2cc[nH]c(=O)c2)c1` [Compound 47, N-[1-(4-fluorophenyl)-3-pyridin-4-yl-1H-pyrazol-5-yl]-3-(2-oxo-1,2-dihydropyridin-4-yl)-4-(trifluoromethyl)benzamide], the pIC50 was 5.91.

`Cc1cc(NC(=O)c2cc(-c3ccn(C)n3)c(C(F)(F)F)cc2Cl)n(-c2cc(C)[nH]n2)n1` [Compound 48, 2-chloro-N-(3,5′-dimethyl-1′H-1,3′-bipyrazol-5-yl)-5-(1-methyl-1H-pyrazol-3-yl)-4-(trifluoromethyl)benzamide] had a negative logarithm of the IC50 (pIC50) of 9.09.

`Cn1ccc(-c2cc(C(=O)Nc3cn[nH]c3-c3ccccc3)c(Cl)cc2C(F)(F)F)n1` [Compound 49, 2-chloro-5-(1-methyl-1H-pyrazol-3-yl)-N-(5-phenyl-1H-pyrazol-4-yl)-4-(trifluoromethyl)benzamide] gave a negative logarithm of the IC50 (pIC50) of 8.24.

With `Cn1ccc(-c2cc(C(=O)Nc3c(-c4ccccc4)nc(C(N)=O)n3C)ccc2C(F)(F)F)n1` [Compound 50, 1-methyl-5-({[3-(1-methyl-1H-pyrazol-3-yl)-4-(trifluoromethyl)phenyl]carbonyl}amino)-4-phenyl-1H-imidazole-2-carboxamide], the pIC50 was 8.24.

`Cc1cc(-n2nc(CO)cc2NC(=O)c2ccc(C(F)(F)F)c(-c3ccn(C)n3)c2)[nH]n1` [Compound 51] gave a negative logarithm of the IC50 (pIC50) of 8.54.

In turn, `Cc1nc(-c2ccncc2)c(NC(=O)c2ccc(C(F)(F)F)c(-c3ccn(C)n3)c2)n1C` [Compound 52, N-(1,2-dimethyl-4-pyridin-4-yl-1H-imidazol-5-yl)-3-(1-methyl-1H-pyrazol-3-yl)-4-(trifluoromethyl)benzamide] gave a pIC50 of 5.68.

With `Cc1nc(-c2nc(C)n(C)c2NC(=O)c2ccc(C(F)(F)F)c(-c3ccn(C)n3)c2)cs1` [Compound 53, N-[1,2-dimethyl-4-(2-methyl-1,3-thiazol-4-yl)-1H-imidazol-5-yl]-3-(1-methyl-1H-pyrazol-3-yl)-4-(trifluoromethyl)benzamide], the negative logarithm of the IC50 (pIC50) was 6.23.

`Cc1cc(NC(=O)c2cc(-c3cc[nH]n3)ccc2Cl)n(-c2cc(C)[nH]n2)n1` [Compound 54, 2-chloro-N-(3,5′-dimethyl-1′H-1,3′-bipyrazol-5-yl)-5-(1H-pyrazol-3-yl)benzamide] showed a pIC50 of 6.31.

Compound `Cn1ccc(-c2cc(C(=O)Nc3cc(-c4ccc(=O)[nH]n4)nn3-c3ccccc3)c(Cl)cc2C(F)(F)F)n1` [Compound 55, 2-chloro-5-(1-methyl-1H-pyrazol-3-yl)-N-[3-(6-oxo-1,6-dihydropyridazin-3-yl)-1-phenyl-1H-pyrazol-5-yl]-4-(trifluoromethyl)benzamide] had a pIC50 of 8.80.

For `Cc1cc(-n2nc(-c3ccc(=O)[nH]n3)cc2NC(=O)c2ccc(C(F)(F)F)c(-c3ncccn3)c2)n[nH]1` [Compound 57, N-[5′-methyl-3-(6-oxo-1,6-dihydropyridazin-3-yl)-1′H-1,3′-bipyrazol-5-yl]-3-pyrimidin-2-yl-4-(trifluoromethyl)benzamide], the negative-log IC50 (pIC50) was 7.11.

For the compound `Cn1ccc(-c2cc(C(=O)Nc3cc(Cc4nnn(C)n4)nn3-c3ccccc3)c(Cl)cc2C(F)(F)F)n1` [Compound 58, 2-chloro-5-(1-methyl-1H-pyrazol-3-yl)-N-{3-[(2-methyl-2H-tetrazol-5-yl)methyl]-1-phenyl-1H-pyrazol-5-yl}-4-(trifluoromethyl)benzamide], the negative logarithm of the IC50 (pIC50) was 8.47.

`Cn1ccc(-c2cc(C(=O)Nc3cc(Cc4nnnn4C)nn3-c3ccccc3)c(Cl)cc2C(F)(F)F)n1` [Compound 59, 2-chloro-5-(1-methyl-1H-pyrazol-3-yl)-N-{3-[(1-methyl-1H-tetrazol-5-yl)methyl]-1-phenyl-1H-pyrazol-5-yl}-4-(trifluoromethyl)benzamide] gave a pIC50 of 8.77.

On to `Cn1ccc(-c2cc(C(=O)Nc3cc(-c4ncccn4)nn3-c3ccc(F)cc3)ccc2C(F)(F)F)n1` [Compound 60, N-[1-(4-fluorophenyl)-3-pyrimidin-2-yl-1H-pyrazol-5-yl]-3-(1-methyl-1H-pyrazol-3-yl)-4-(trifluoromethyl)benzamide], for which the pIC50 is 8.52.

`Cc1coc(-c2cc(C(=O)Nc3cc(-c4cn[nH]c4)nn3-c3cc(C)[nH]n3)ccc2C(F)(F)F)n1` [Compound 61, 3-(4-methyl-1,3-oxazol-2-yl)-N-(5-methyl-1H,1″H-3,1′:3′,4″-terpyrazol-5′-yl)-4-(trifluoromethyl)benzamide] had a negative-log IC50 (pIC50) of 8.51.

Regarding `O=C(Nc1cn[nH]c1-c1ccccc1)c1cc(-c2cc[nH]n2)c(C(F)(F)F)cc1F` [Compound 62, 2-fluoro-N-(5-phenyl-1H-pyrazol-4-yl)-5-(1H-pyrazol-3-yl)-4-(trifluoromethyl)benzamide], the pIC50 was 7.07.

Turning to `Cc1nc(-c2ccccc2)c(NC(=O)c2cc(-c3ccn(C)n3)c(C(F)(F)F)cc2F)n1C` [Compound 63, N-(1,2-dimethyl-4-phenyl-1H-imidazol-5-yl)-2-fluoro-5-(1-methyl-1H-pyrazol-3-yl)-4-(trifluoromethyl)benzamide], the pIC50 is 8.08.

`O=C(Nc1cc(-c2ncccn2)nn1-c1ccc(F)cc1)c1cc(-c2cc[nH]n2)c(C(F)(F)F)cc1F` [Compound 64, 2-fluoro-N-[1-(4-fluorophenyl)-3-pyrimidin-2-yl-1H-pyrazol-5-yl]-5-(1H-pyrazol-3-yl)-4-(trifluoromethyl)benzamide]: the negative logarithm of the IC50 (pIC50) was 7.66.

In the case of `Cn1ccc(-c2cc(C(=O)Nc3cn(C)nc3-c3ccccc3)c(F)cc2C(F)(F)F)n1` [Compound 65, 2-fluoro-N-(1-methyl-3-phenyl-1H-pyrazol-4-yl)-5-(1-methyl-1H-pyrazol-3-yl)-4-(trifluoromethyl)benzamide], the negative-log IC50 (pIC50) is 8.35.

On to `Cn1ccc(-c2cc(C(=O)Nc3cc(Cn4cnnn4)nn3-c3ccccc3)ccc2C(F)(F)F)n1` [Compound 66, 3-(1-methyl-1H-pyrazol-3-yl)-N-[1-phenyl-3-(1H-tetrazol-1-ylmethyl)-1H-pyrazol-5-yl]-4-(trifluoromethyl)benzamide], for which the pIC50 was 8.64.

In turn, `Cn1ccc(-c2cc(C(=O)Nc3cc(Cn4ncnn4)nn3-c3ccccc3)ccc2C(F)(F)F)n1` [Compound 67, 3-(1-methyl-1H-pyrazol-3-yl)-N-[1-phenyl-3-(2H-tetrazol-2-ylmethyl)-1H-pyrazol-5-yl]-4-(trifluoromethyl)benzamide] had a pIC50 of 8.43.
